In one experiment the target is T1, human Sirt2 (Homo sapiens, UniProt Q8IXJ6).
T1 construct: made in house; host or cells: E. coli BL21 Star (DE3)
T1 sequence (Q8IXJ6 56-356): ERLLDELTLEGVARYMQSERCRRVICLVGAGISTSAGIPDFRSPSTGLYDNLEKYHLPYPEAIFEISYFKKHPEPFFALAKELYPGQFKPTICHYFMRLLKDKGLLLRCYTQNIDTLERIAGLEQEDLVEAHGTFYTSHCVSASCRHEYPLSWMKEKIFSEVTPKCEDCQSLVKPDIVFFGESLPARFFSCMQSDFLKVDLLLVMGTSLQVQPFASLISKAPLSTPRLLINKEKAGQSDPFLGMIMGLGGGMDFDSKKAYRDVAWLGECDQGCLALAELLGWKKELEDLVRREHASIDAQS
Nature of the experiment: Homogeneous ZMAL-based fluorescence assay, Sirt2. The format is biochemical. The note with it: 4th round. As to the method: Recombinant human Sirt5_37−310 was purchased readily in Tris Buffer [25 mM Tris, 100 mM NaCl, 5 mM DTT, 10% glycerol (v/v)] from Enzo Life Sciences (NY, USA). Human Sirt3_118−395 was expressed and purified as described previously ([54]). For expression of human Sirt1_134−747 and Sirt2_56−356 chemically competent cells of E. coli BL21 Star (DE3) were transformed with the expression vectors pET30S-hSirt1_134−747 or pET30S-hSirt2_56−356. Bacteria were grown at 37°C in 2×YT medium supplemented with 50 μg·mL^−1 of kanamycin to an OD600 of 0.6. Then isopropyl-β-D-1-thiogalactopyranoside (IPTG) was added to a final concentration of 1 mM to induce gene expression. After further cultivation at 20°C for 12 h, the cells were harvested by centrifugation for 15 min at 5,000 g. The cells were resuspended in lysis buffer [100 mM Tris/HCl buffer at pH 8.0, 150 mM NaCl and 10% (v/v) glycerol] and disrupted by ultrasonication (Branson Digital Sonifier 250) at 70% amplitude for 10 min (3 s working, 10 s pause). The crude extract was cleared by centrifugation at 100,000 g for 1 h, and the supernatant was loaded onto a Strep-Tactin Superflow cartridge (5 ml bed volume, IBA Lifescience, Germany). Target proteins were eluted with lysis buffer containing 5 mM D-Desthiobiotin (IBA Lifescience, Germany) and further separated by size-exclusion chromatography (Superdex S200 26/60, GE Healthcare, IL, USA) equilibrated in Tris/HCl buffer (20 mM, 150 mM NaCl, pH 8.0). Pure protein was concentrated by ultrafiltration, flash-frozen in liquid nitrogen and stored at −80°C until further use. Identity as well as purity were verified by SDS-PAGE ([55]) and protein concentration was determined by the bicinchoninic acid (BCA) method, using bovine serum albumin (BSA) as a standard ([56]). Deacetylase activity was confirmed to be NAD^+-dependent and could be inhibited with the physiological sirtuin inhibitor nicotinamide.
All compounds were tested in the trypsin-coupled high-throughput ZMAL-assay in black 96-well plates (OptiPlateTM−96F, black, 96 well, Pinch bar design, PerkinElmer, USA), using ZMAL (Z-Lys(acetyl)-AMC) as a substrate ([57]). Sirt1_134−747, Sirt2_56−356, and Sirt3_118−395 were mixed with 5 μL substrate (10.5 μM final assay concentration, diluted from a […] stock in DMSO) and 3 μL Inhibitor in DMSO at various concentrations or DMSO as a control [final DMSO concentration 5% (v/v)]. The mixture was supplemented with assay buffer (50 mM Tris/HCl, 137 mM NaCl, 2.7 mM KCl, 1 mM MgCL2, pH 8.0) to a total volume of 55 μL. Enzyme concentration was adjusted to get a final conversion of 20–30%. Addition of 5 μL NAD^+ (6 mM in assay buffer, final assay concentration of 500 μM) initiated the catalytic reaction and the plates were incubated at 37°C for 4 h with agitation at 140 rpm. The catalytic reaction was stopped by addition of 60 μL stop solution [50 mM Tris, 100 mM NaCl, 6.7% (V/V) DMSO, 5.5 U/μL trypsin, 8 μM nicotinamide, pH 8.0]. The plate was again incubated at 37°C and 140 rpm for 20 min to release free AMC from the deacetylated substrate by trypsin digestion. Afterwards, fluorescence intensity was measured in a microplate reader (λEx = 390 nm, λEm = 460 nm, BMG POLARstar Optima, BMG Labtech, Germany). An enzyme-free blank control and a 100% conversion control containing AMC instead of ZMAL were measured in addition. Inhibition was calculated in % in relation to a DMSO control after blank signal subtraction and IC50 values were determined using a non-linear regression to fit the dose-response curve with OriginPro 9G (OriginLab, USA). Pre-tests as well as IC50 determination was carried out at least twice in duplicates.

Another experiment deals with HeLa cells. Nature of the experiment: Wound healing assay with HeLa cells. The format is cell-based, human. The following applies: 24 h; S1th 13 12 μM. As to the method: For wound healing assay 6 × 10^5 cells per well were seeded in 6-well plates and grown for 24 h in DMEM containing 10% FBS. After 24 h, a lineal gap between cells was created in the middle of the plate by scratching the cell monolayer with a 1 mL pipette tip in the same position in each well. Once the scratching is done, plates were washed twice with PBS and then grown in DMEM containing 1% FBS and the drugs in the same concentrations as for the proliferation assay. As described previously, the growth media 1% FBS containing the drugs was replaced every 48 h. Images were acquired in an Optimal microscope (Leica microscopes, DE) using Leica Application Suite X (LAS X) every 24 h (0, 24, 48, and 72 h) until the gap closed. The quantification of the area of the gap at the indicated times was performed with Image J-MRI Wound Healing Tool. The experiment was performed only once.

Experimental findings from paper PMC7203344, “Sirtuin 1 Inhibiting Thiocyanates (S1th)—A New Class of Isotype Selective Inhibitors of NAD^+ Dependent Lysine Deacetylases” (Frontiers in Oncology, 2020) are described below.

Each structure is given as a SMILES string. Bounds are passed on as bounds.

For orientation: inhibition means the relative decrease from the control value, in per cent. Higher therefore signals strong suppression. At human Sirt2, `N#CSc1cc(SC#N)c(N)nc1N` [PR-619, reference compound] returned an inhibition at 50 µM of 36%. In the case of `N#CSc1cccc(NC(=O)[C@H]2CC=CC[C@H]2C(=O)O)c1` [S1th 10], at human Sirt2, the inhibition at 50 µM is under 10%. The molecule `CCCCNC(=O)Nc1cccc(SC#N)c1` [S1th 11] came in with an inhibition at 50 µM against human Sirt2 of under 10%. As to `COc1ccc(SC#N)cc1OCC(=O)N(CCC#N)CCC#N` [S1th 12], the inhibition at 50 µM on human Sirt2 was under 10%. For `N#CSc1cccc(NS(=O)(=O)c2ccc3c(c2)OCCO3)c1` [S1th 13], the “lower reduction of total wound area compared to control without drug” value in the experiment with HeLa cells is ~ 50%. This molecule also returned an inhibition at 50 µM at human Sirt2 of under 10%.
